Test results published in PubChem BioAssay (NCI).
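Exposure lasted 48 hours, with cells grown in 96-well plates and compounds tested at five concentrations. GI50 is the concentration that inhibits growth by half. TGI is the concentration that stops growth completely.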

Tests used:
Assay in all cases: NCI tumour cell line growth inhibition, 48 h
PC-3 prostate = test system: PC-3 prostate
MOLT-4 leukemia = test system: MOLT-4 leukemia
SK-MEL-28 melanoma = test system: SK-MEL-28 melanoma
KM12 colon = test system: KM12 colon
MDA-MB-231 breast = test system: MDA-MB-231 breast
OVCAR-4 ovarian = test system: OVCAR-4 ovarian
HL-60(TB) leukemia = test system: HL-60(TB) leukemia
RPMI-8226 leukemia = test system: RPMI-8226 leukemia
SF-295 CNS = test system: SF-295 CNS
NCI-H522 lung = test system: NCI-H522 lung
COLO 205 colon = test system: COLO 205 colon
HOP-92 NSCLC = test system: HOP-92 NSCLC
NCI-H226 lung = test system: NCI-H226 lung
HCT-116 colon = test system: HCT-116 colon
OVCAR-5 ovarian = test system: OVCAR-5 ovarian
OVCAR-3 ovarian = test system: OVCAR-3 ovarian
RXF 393 renal = test system: RXF 393 renal
SN12C renal = test system: SN12C renal
DU-145 prostate = test system: DU-145 prostate
IGROV1 ovarian = test system: IGROV1 ovarian
CAKI-1 renal = test system: CAKI-1 renal
SW-620 colon = test system: SW-620 colon
MCF7 breast = test system: MCF7 breast
K-562 leukemia = test system: K-562 leukemia
ACHN renal = test system: ACHN renal
LOX IMVI melanoma = test system: LOX IMVI melanoma
UO-31 renal = test system: UO-31 renal
SR leukemia = test system: SR leukemia
HCT-15 colon = test system: HCT-15 colon
NCI/ADR-RES ovarian = test system: NCI/ADR-RES ovarian
SNB-19 CNS = test system: SNB-19 CNS
U251 CNS = test system: U251 CNS
NCI-H23 lung = test system: NCI-H23 lung
UACC-257 melanoma = test system: UACC-257 melanoma
OVCAR-8 ovarian = test system: OVCAR-8 ovarian
HT29 colon = test system: HT29 colon
TK-10 renal = test system: TK-10 renal
EKVX NSCLC = test system: EKVX NSCLC
SF-539 CNS = test system: SF-539 CNS
NCI-H460 lung = test system: NCI-H460 lung
SK-OV-3 ovarian = test system: SK-OV-3 ovarian
A498 renal = test system: A498 renal
786-0 renal = test system: 786-0 renal
HCC-2998 colon = test system: HCC-2998 colon
HOP-62 NSCLC = test system: HOP-62 NSCLC
HS 578T breast = test system: HS 578T breast
SK-MEL-2 melanoma = test system: SK-MEL-2 melanoma
BT-549 breast = test system: BT-549 breast
SK-MEL-5 melanoma = test system: SK-MEL-5 melanoma
MALME-3M melanoma = test system: MALME-3M melanoma
SNB-75 CNS = test system: SNB-75 CNS
SF-268 CNS = test system: SF-268 CNS
T-47D breast = test system: T-47D breast
MDA-MB-435 = test system: MDA-MB-435
CCRF-CEM leukemia = test system: CCRF-CEM leukemia
A549 NSCLC = test system: A549 NSCLC
M14 melanoma = test system: M14 melanoma

With CN1CCN(C(=O)C(C)(C)c2ccc(C(=O)Nc3cn4cc(-c5ccncc5)ccc4n3)cc2)CC1 the GI50 (PC-3 prostate) was 382 nM, the TGI (PC-3 prostate) was > 70200 nM and the GI50 (MOLT-4 leukemia) was 319 nM. For the same molecule, the TGI (MOLT-4 leukemia) was > 46700 nM, the GI50 (SK-MEL-28 melanoma) was 343 nM and the TGI (SK-MEL-28 melanoma) was 6470 nM. The GI50 (KM12 colon) was 175 nM, the TGI (KM12 colon) was > 60300 nM and the GI50 (MDA-MB-231 breast) was 413 nM. The TGI (MDA-MB-231 breast) was > 54100 nM, the GI50 (OVCAR-4 ovarian) was 350 nM and the TGI (OVCAR-4 ovarian) was > 100000 nM. For the same molecule, the GI50 (HL-60(TB) leukemia) was 371 nM, the TGI (HL-60(TB) leukemia) was 3550 nM and the GI50 (RPMI-8226 leukemia) was 201 nM. For the same molecule, the TGI (RPMI-8226 leukemia) was 1350 nM, the GI50 (SF-295 CNS) was 482 nM and the TGI (SF-295 CNS) was 30800 nM. It also gave a GI50 (NCI-H522 lung) of 220 nM, a TGI (NCI-H522 lung) of 13400 nM and a GI50 (COLO 205 colon) of 289 nM. The GI50 (HOP-92 NSCLC) was 366 nM, the TGI (HOP-92 NSCLC) was 7110 nM and the GI50 (NCI-H226 lung) was 320 nM. For the same molecule, the TGI (NCI-H226 lung) was 2510 nM, the GI50 (HCT-116 colon) was 80.2 nM and the TGI (HCT-116 colon) was > 100000 nM. It also gave a GI50 (OVCAR-5 ovarian) of 405 nM, a TGI (OVCAR-5 ovarian) of 7160 nM and a GI50 (OVCAR-3 ovarian) of 126 nM. The TGI (OVCAR-3 ovarian) was 431 nM, the GI50 (RXF 393 renal) was 316 nM and the TGI (RXF 393 renal) was 1010 nM. For the same molecule, the GI50 (SN12C renal) was 267 nM, the TGI (SN12C renal) was > 100000 nM and the GI50 (DU-145 prostate) was 319 nM. The TGI (DU-145 prostate) was 35200 nM, the GI50 (IGROV1 ovarian) was 220 nM and the TGI (IGROV1 ovarian) was 6000 nM. The GI50 (CAKI-1 renal) was 193 nM, the TGI (CAKI-1 renal) was > 100000 nM and the GI50 (SW-620 colon) was 185 nM. For the same molecule, the TGI (SW-620 colon) was > 56000 nM, the GI50 (MCF7 breast) was 282 nM and the TGI (MCF7 breast) was > 100000 nM. For the same molecule, the GI50 (K-562 leukemia) was 194 nM, the TGI (K-562 leukemia) was > 100000 nM and the GI50 (ACHN renal) was 238 nM. The TGI (ACHN renal) was 1480 nM, the GI50 (LOX IMVI melanoma) was 215 nM and the TGI (LOX IMVI melanoma) was 934 nM. The GI50 (UO-31 renal) was 272 nM, the TGI (UO-31 renal) was 1300 nM and the GI50 (SR leukemia) was 135 nM. It also gave a TGI (SR leukemia) of 4700 nM, a GI50 (HCT-15 colon) of 312 nM and a TGI (HCT-15 colon) of 7200 nM. The GI50 (NCI/ADR-RES ovarian) was 917 nM, the TGI (NCI/ADR-RES ovarian) was > 100000 nM and the GI50 (SNB-19 CNS) was 239 nM. For the same molecule, the TGI (SNB-19 CNS) was > 100000 nM, the GI50 (U251 CNS) was 332 nM and the TGI (U251 CNS) was > 100000 nM. The GI50 (NCI-H23 lung) was 307 nM, the TGI (NCI-H23 lung) was 19200 nM and the GI50 (UACC-257 melanoma) was 296 nM. For the same molecule, the TGI (UACC-257 melanoma) was 15100 nM, the GI50 (OVCAR-8 ovarian) was 347 nM and the TGI (OVCAR-8 ovarian) was > 100000 nM. The GI50 (HT29 colon) was 358 nM, the TGI (HT29 colon) was > 94900 nM and the GI50 (TK-10 renal) was 484 nM. For the same molecule, the TGI (TK-10 renal) was > 100000 nM, the GI50 (EKVX NSCLC) was 491 nM and the TGI (EKVX NSCLC) was > 100000 nM. It also gave a GI50 (SF-539 CNS) of 246 nM, a TGI (SF-539 CNS) of 1170 nM and a GI50 (NCI-H460 lung) of 303 nM. It also gave a TGI (NCI-H460 lung) of 34300 nM, a GI50 (SK-OV-3 ovarian) of 275 nM and a TGI (SK-OV-3 ovarian) of 17500 nM. For the same molecule, the GI50 (A498 renal) was 157 nM, the TGI (A498 renal) was 418 nM and the GI50 (786-0 renal) was 539 nM. For the same molecule, the TGI (786-0 renal) was > 100000 nM, the GI50 (HCC-2998 colon) was 502 nM and the TGI (HCC-2998 colon) was 9700 nM. For the same molecule, the GI50 (HOP-62 NSCLC) was 307 nM, the TGI (HOP-62 NSCLC) was > 53000 nM and the GI50 (HS 578T breast) was 327 nM. It also gave a TGI (HS 578T breast) of 3660 nM, a GI50 (SK-MEL-2 melanoma) of 316 nM and a TGI (SK-MEL-2 melanoma) of 1620 nM. For the same molecule, the GI50 (BT-549 breast) was 332 nM, the TGI (BT-549 breast) was 14900 nM and the GI50 (SK-MEL-5 melanoma) was 188 nM. The TGI (SK-MEL-5 melanoma) was 382 nM, the GI50 (MALME-3M melanoma) was 260 nM and the TGI (MALME-3M melanoma) was 773 nM. For the same molecule, the GI50 (SNB-75 CNS) was 167 nM, the TGI (SNB-75 CNS) was 1570 nM and the GI50 (SF-268 CNS) was 380 nM. For the same molecule, the TGI (SF-268 CNS) was 10500 nM, the GI50 (T-47D breast) was 201 nM and the TGI (T-47D breast) was > 100000 nM. It also gave a GI50 (MDA-MB-435) of 367 nM, a TGI (MDA-MB-435) of 17500 nM and a GI50 (CCRF-CEM leukemia) of 280 nM. For the same molecule, the TGI (CCRF-CEM leukemia) was > 100000 nM, the GI50 (A549 NSCLC) was 214 nM and the TGI (A549 NSCLC) was > 100000 nM. For the same molecule, the GI50 (M14 melanoma) was 389 nM and the TGI (M14 melanoma) was 22800 nM.
